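1) Cells in 96-well plates. 2) Compound, 48 h, 5 concentrations. 3) Linear interpolation between surrounding doses. 4) Unreached endpoint = highest concentration. The concentration for 50% growth inhibition is given as GI50. At the TGI there is no net growth.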
Tests used:
Experiment in all cases: growth of human tumour cells (NCI), 48 h
786-0 renal = tested on: 786-0 renal
A498 renal = tested on: A498 renal
A549 NSCLC = tested on: A549 NSCLC
ACHN renal = tested on: ACHN renal
BT-549 breast = tested on: BT-549 breast
CAKI-1 renal = tested on: CAKI-1 renal
CCRF-CEM leukemia = tested on: CCRF-CEM leukemia
COLO 205 colon = tested on: COLO 205 colon
DU-145 prostate = tested on: DU-145 prostate
EKVX NSCLC = tested on: EKVX NSCLC
HCC-2998 colon = tested on: HCC-2998 colon
HCT-116 colon = tested on: HCT-116 colon
HCT-15 colon = tested on: HCT-15 colon
HL-60(TB) leukemia = tested on: HL-60(TB) leukemia
HOP-62 NSCLC = tested on: HOP-62 NSCLC
HOP-92 NSCLC = tested on: HOP-92 NSCLC
HS 578T breast = tested on: HS 578T breast
HT29 colon = tested on: HT29 colon
IGROV1 ovarian = tested on: IGROV1 ovarian
K-562 leukemia = tested on: K-562 leukemia
KM12 colon = tested on: KM12 colon
LOX IMVI melanoma = tested on: LOX IMVI melanoma
M14 melanoma = tested on: M14 melanoma
MALME-3M melanoma = tested on: MALME-3M melanoma
MCF7 breast = tested on: MCF7 breast
MDA-MB-231 breast = tested on: MDA-MB-231 breast
MDA-MB-435 = tested on: MDA-MB-435
MOLT-4 leukemia = tested on: MOLT-4 leukemia
NCI-H226 lung = tested on: NCI-H226 lung
NCI-H23 lung = tested on: NCI-H23 lung
NCI-H460 lung = tested on: NCI-H460 lung
NCI-H522 lung = tested on: NCI-H522 lung
NCI/ADR-RES ovarian = tested on: NCI/ADR-RES ovarian
OVCAR-3 ovarian = tested on: OVCAR-3 ovarian
OVCAR-4 ovarian = tested on: OVCAR-4 ovarian
OVCAR-5 ovarian = tested on: OVCAR-5 ovarian
OVCAR-8 ovarian = tested on: OVCAR-8 ovarian
PC-3 prostate = tested on: PC-3 prostate
RPMI-8226 leukemia = tested on: RPMI-8226 leukemia
RXF 393 renal = tested on: RXF 393 renal
SF-268 CNS = tested on: SF-268 CNS
SF-295 CNS = tested on: SF-295 CNS
SF-539 CNS = tested on: SF-539 CNS
SK-MEL-2 melanoma = tested on: SK-MEL-2 melanoma
SK-MEL-28 melanoma = tested on: SK-MEL-28 melanoma
SK-MEL-5 melanoma = tested on: SK-MEL-5 melanoma
SK-OV-3 ovarian = tested on: SK-OV-3 ovarian
SN12C renal = tested on: SN12C renal
SNB-19 CNS = tested on: SNB-19 CNS
SNB-75 CNS = tested on: SNB-75 CNS
SR leukemia = tested on: SR leukemia
SW-620 colon = tested on: SW-620 colon
T-47D breast = tested on: T-47D breast
TK-10 renal = tested on: TK-10 renal
U251 CNS = tested on: U251 CNS
UACC-257 melanoma = tested on: UACC-257 melanoma
UACC-62 melanoma = tested on: UACC-62 melanoma
UO-31 renal = tested on: UO-31 renal

Compound `COc1cc2c3c(n(CCCN4CCCC4)c(=O)c2cc1OC)-c1cc2c(cc1C3=O)OCO2` has a GI50 (786-0 renal) of 1320 nM, a TGI (786-0 renal) of 2900 nM and a GI50 (A498 renal) of 5530 nM. It also gave a TGI (A498 renal) of 10800 nM, a GI50 (A549 NSCLC) of 1400 nM and a TGI (A549 NSCLC) of 2850 nM. It also gave a GI50 (ACHN renal) of 1360 nM, a TGI (ACHN renal) of 2670 nM and a GI50 (BT-549 breast) of 1400 nM. For the same compound, the TGI (BT-549 breast) was 3490 nM, the GI50 (CAKI-1 renal) was 1160 nM and the TGI (CAKI-1 renal) was 2450 nM. For the same compound, the GI50 (CCRF-CEM leukemia) was 67.3 nM, the TGI (CCRF-CEM leukemia) was 2310 nM and the GI50 (COLO 205 colon) was 1110 nM. For the same compound, the TGI (COLO 205 colon) was 2550 nM, the GI50 (DU-145 prostate) was 1310 nM and the TGI (DU-145 prostate) was 2580 nM. The GI50 (EKVX NSCLC) was 1950 nM, the TGI (EKVX NSCLC) was 3960 nM and the GI50 (HCC-2998 colon) was 1380 nM. It also gave a TGI (HCC-2998 colon) of 2800 nM, a GI50 (HCT-116 colon) of 1140 nM and a TGI (HCT-116 colon) of 2690 nM. It also gave a GI50 (HCT-15 colon) of 1430 nM, a TGI (HCT-15 colon) of 3100 nM and a GI50 (HL-60(TB) leukemia) of 677 nM. It also gave a TGI (HL-60(TB) leukemia) of 1890 nM, a GI50 (HOP-62 NSCLC) of 650 nM and a TGI (HOP-62 NSCLC) of 2460 nM. It also gave a GI50 (HOP-92 NSCLC) of 1930 nM, a TGI (HOP-92 NSCLC) of 3940 nM and a GI50 (HS 578T breast) of 2030 nM. It also gave a TGI (HS 578T breast) of 5080 nM, a GI50 (HT29 colon) of 1320 nM and a TGI (HT29 colon) of 2760 nM. It also gave a GI50 (IGROV1 ovarian) of 1420 nM, a TGI (IGROV1 ovarian) of 3090 nM and a GI50 (K-562 leukemia) of 216 nM. For the same compound, the TGI (K-562 leukemia) was 895 nM, the GI50 (KM12 colon) was 1610 nM and the TGI (KM12 colon) was 3230 nM. The GI50 (LOX IMVI melanoma) was 680 nM, the TGI (LOX IMVI melanoma) was 2290 nM and the GI50 (M14 melanoma) was 1500 nM. The TGI (M14 melanoma) was 3010 nM, the GI50 (MALME-3M melanoma) was 1500 nM and the TGI (MALME-3M melanoma) was 3220 nM. For the same compound, the GI50 (MCF7 breast) was 228 nM, the TGI (MCF7 breast) was 2210 nM and the GI50 (MDA-MB-231 breast) was 1650 nM. For the same compound, the TGI (MDA-MB-231 breast) was 3310 nM, the GI50 (MDA-MB-435) was 1590 nM and the TGI (MDA-MB-435) was 3120 nM. It also gave a GI50 (MOLT-4 leukemia) of under 17.9 nM, a TGI (MOLT-4 leukemia) of 1610 nM and a GI50 (NCI-H226 lung) of 5870 nM. It also gave a TGI (NCI-H226 lung) of 20500 nM, a GI50 (NCI-H23 lung) of 1630 nM and a TGI (NCI-H23 lung) of 3980 nM. The GI50 (NCI-H460 lung) was 206 nM, the TGI (NCI-H460 lung) was 2240 nM and the GI50 (NCI-H522 lung) was 789 nM. It also gave a TGI (NCI-H522 lung) of 2520 nM, a GI50 (NCI/ADR-RES ovarian) of 1350 nM and a TGI (NCI/ADR-RES ovarian) of 3680 nM. It also gave a GI50 (OVCAR-3 ovarian) of 1570 nM, a TGI (OVCAR-3 ovarian) of 2980 nM and a GI50 (OVCAR-4 ovarian) of 1770 nM. It also gave a TGI (OVCAR-4 ovarian) of 3380 nM, a GI50 (OVCAR-5 ovarian) of 1900 nM and a TGI (OVCAR-5 ovarian) of 3500 nM. For the same compound, the GI50 (OVCAR-8 ovarian) was 1360 nM, the TGI (OVCAR-8 ovarian) was 3090 nM and the GI50 (PC-3 prostate) was 1470 nM. It also gave a TGI (PC-3 prostate) of 3840 nM, a GI50 (RPMI-8226 leukemia) of 1250 nM and a TGI (RPMI-8226 leukemia) of 4500 nM. The GI50 (RXF 393 renal) was 1490 nM, the TGI (RXF 393 renal) was 2950 nM and the GI50 (SF-268 CNS) was 650 nM. It also gave a TGI (SF-268 CNS) of 2370 nM, a GI50 (SF-295 CNS) of 223 nM and a TGI (SF-295 CNS) of 2010 nM. It also gave a GI50 (SF-539 CNS) of 1320 nM, a TGI (SF-539 CNS) of 2770 nM and a GI50 (SK-MEL-2 melanoma) of 17100 nM. It also gave a TGI (SK-MEL-2 melanoma) of 33600 nM, a GI50 (SK-MEL-28 melanoma) of 1710 nM and a TGI (SK-MEL-28 melanoma) of 3380 nM. It also gave a GI50 (SK-MEL-5 melanoma) of 4250 nM, a TGI (SK-MEL-5 melanoma) of 9120 nM and a GI50 (SK-OV-3 ovarian) of 795 nM. For the same compound, the TGI (SK-OV-3 ovarian) was 2460 nM, the GI50 (SN12C renal) was 1650 nM and the TGI (SN12C renal) was 3380 nM. For the same compound, the GI50 (SNB-19 CNS) was 1540 nM, the TGI (SNB-19 CNS) was 3720 nM and the GI50 (SNB-75 CNS) was 286 nM. For the same compound, the TGI (SNB-75 CNS) was 1960 nM, the GI50 (SR leukemia) was 51.4 nM and the TGI (SR leukemia) was 590 nM. The GI50 (SW-620 colon) was 624 nM, the TGI (SW-620 colon) was 3450 nM and the GI50 (T-47D breast) was 4700 nM. For the same compound, the TGI (T-47D breast) was 11100 nM, the GI50 (TK-10 renal) was 1930 nM and the TGI (TK-10 renal) was 3460 nM. The GI50 (U251 CNS) was 1180 nM, the TGI (U251 CNS) was 2480 nM and the GI50 (UACC-257 melanoma) was 1490 nM. The TGI (UACC-257 melanoma) was 3210 nM, the GI50 (UACC-62 melanoma) was 1480 nM and the TGI (UACC-62 melanoma) was 3480 nM. For the same compound, the GI50 (UO-31 renal) was 1430 nM and the TGI (UO-31 renal) was 2850 nM.

Reference: PubChem BioAssay (NCI)
